This note sets out measurements from PubChem BioAssay AID602177 (NMMLSC, 2012).

SMILES strings stand for the structures. Active and inactive are the calls of the source. The rule behind the calls is not given here.

The target of this assay is Botulinum neurotoxin type F (Clostridium botulinum) (UniProt P30996). Description: BoNT/F light chain protease inhibitor potency, dose response, biochemical, cherry pick 1 compounds (AID 602177). As to conditions: multiplex microsphere protease cleavage assay, BoNT/F LC.

As for `Oc1[nH]c(N=C2N=c3ccccc3=N2)c2ccccc12`, the EC50 is > 20 µM (inactive).

One may read the EC50 as the concentration that produces a half-maximal response.
